Measurements reported in ChEMBL document CHEMBL3407345, “Synthesis and biological evaluation of pyridazino[1',6':1,2]pyrido[3,4-b]indolinium and pyridazino[1,6-a]benzimidazolium salts as anti-inflammatory agents” (Eur J Med Chem, 2015).
Active and inactive are the calls of the source. The rule behind the calls is not given here.

Legend:
[1] = Toxicity against LPS-stimulated human THP1 cells assessed as cell viability at 10 uM incubated for 24 hrs by propidium iodide staining based flow cytometry relative to control; design: species or system THP-1; conditions: read-out: Activity
[2] = Toxicity against human THP1 cells assessed as cell viability at 10 uM incubated for 24 hrs by propidium iodide staining based flow cytometry; conditions: thp-1, 24 h
[3] = Toxicity against LPS-stimulated human THP1 cells assessed as cell viability at 10 uM incubated for 24 hrs by propidium iodide staining based flow cytometry; conditions: thp-1, 24 h
[4] = Anti-inflammatory activity in human THP1 cells assessed as inhibition of LPS-stimulated TNFalpha production at 10 uM incubated for 24 hrs followed by further stimulation with LPS during last 4 hrs by ELISA method; type: functional; conditions: THP-1
[5] = Anti-inflammatory activity in human THP1 cells assessed as inhibition of LPS-stimulated TNFalpha production at 5 uM incubated for 24 hrs followed by further stimulation with LPS during last 4 hrs by ELISA method; type: functional; conditions: THP-1
[6] = Anti-inflammatory activity in CD14 expressing human monocytes assessed as inhibition of LPS-stimulated TNFalpha production at 0.5 uM incubated for 24 hrs followed by further stimulation with LPS during last 4 hrs by ELISA method; type: functional; conditions: Monocyte
[7] = Anti-inflammatory activity in human THP1 cells assessed as inhibition of LPS-stimulated TNFalpha production incubated for 24 hrs followed by further stimulation with LPS during last 4 hrs by ELISA method; type: functional, cell-based; conditions: THP-1
Homo sapiens [8] = species on record: Homo sapiens; assay: Anti-inflammatory activity in human MDDC assessed as inhibition of poly I:C stimulated-IL12 production at 1 and 5 uM pre-incubated for 1 hr followed by overnight poly I:C stimulation by cytometric bead array method; type: functional
PBMC [9] = assay: Anti-inflammatory activity in human PBMC assessed as inhibition of LPS-stimulated TNFalpha production at 0.1 uM incubated for 24 hrs followed by further stimulation with LPS during last 4 hrs by ELISA method; type: functional
Monocyte [10] = assay: Anti-inflammatory activity in human monocytes assessed as inhibition of poly I:C stimulated-IL12 production at 1 and 5 uM pre-incubated for 1 hr followed by overnight poly I:C stimulation by cytometric bead array method; type: functional, cell-based
PBMC [11] = assay: Anti-inflammatory activity in human PBMC assessed as inhibition of LPS-stimulated TNFalpha production at 10 uM incubated for 24 hrs followed by further stimulation with LPS during last 4 hrs by ELISA method; type: functional
PBMC [12] = assay: Anti-inflammatory activity in human PBMC assessed as inhibition of LPS-stimulated TNFalpha production at 5 uM incubated for 24 hrs followed by further stimulation with LPS during last 4 hrs by ELISA method; type: functional
Homo sapiens [13] = species on record: Homo sapiens; assay: Anti-inflammatory activity in human MDDC assessed as inhibition of poly I:C stimulated-TNFalpha production at 1 and 5 uM pre-incubated for 1 hr followed by overnight poly I:C stimulation by ELISA method; type: functional
[14] = Anti-inflammatory activity in human THP1 cells assessed as inhibition of LPS-stimulated TNFalpha production at 0.1 uM incubated for 24 hrs followed by further stimulation with LPS during last 4 hrs by ELISA method; type: functional; conditions: THP-1
[15] = Anti-inflammatory activity in CD14 expressing human monocytes assessed as inhibition of LPS-stimulated TNFalpha production at 10 uM incubated for 24 hrs followed by further stimulation with LPS during last 4 hrs by ELISA method; type: functional; conditions: Monocyte
[16] = Anti-inflammatory activity in CD14 expressing human monocytes assessed as inhibition of LPS-stimulated TNFalpha production incubated for 24 hrs followed by further stimulation with LPS during last 4 hrs by ELISA method; type: functional, cell-based; conditions: Monocyte
[17] = Anti-inflammatory activity in CD14 expressing human monocytes assessed as inhibition of LPS-stimulated TNFalpha production at 1 uM incubated for 24 hrs followed by further stimulation with LPS during last 4 hrs by ELISA method; type: functional; conditions: Monocyte
Monocyte [18] = assay: Anti-inflammatory activity in CD14 expressing human monocytes assessed as inhibition of LPS-stimulated TNFalpha mRNA expression overnight incubated with 1 uM compound followed by further stimulation with LPS for 2 hrs by quantitative RT-PCR analysis; type: functional, cell-based
Monocyte [19] = assay: Anti-inflammatory activity in human monocytes assessed as inhibition of poly I:C stimulated-TNFalpha production at 1 and 5 uM pre-incubated for 1 hr followed by overnight poly I:C stimulation by ELISA method; type: functional, cell-based
PBMC [20] = assay: Anti-inflammatory activity in human PBMC assessed as inhibition of LPS-stimulated TNFalpha production incubated for 24 hrs followed by further stimulation with LPS during last 4 hrs by ELISA method; type: functional, cell-based
[21] = Anti-inflammatory activity in CD14 expressing human monocytes assessed as inhibition of LPS-stimulated TNFalpha production at 2.5 uM incubated for 24 hrs followed by further stimulation with LPS during last 4 hrs by ELISA method; type: functional; conditions: Monocyte
Mus musculus = assay: Inhibition of LPS-stimulated TNFalpha production in spelnocytes derived from C57BL/6 mouse treated with two doses of compound at 2 mg/kg, ip at interval of 18 hrs measured 4 hrs after second dose by cytometric bead array method; type: functional, organism-based; design: dose 2 mg/kg
PBMC [22] = assay: Anti-inflammatory activity in human PBMC assessed as inhibition of LPS-stimulated TNFalpha production at 1 uM incubated for 24 hrs followed by further stimulation with LPS during last 4 hrs by ELISA method; type: functional
[23] = Anti-inflammatory activity in human THP1 cells assessed as inhibition of LPS-stimulated TNFalpha production at 1 uM incubated for 24 hrs followed by further stimulation with LPS during last 4 hrs by ELISA method; type: functional; conditions: THP-1
[24] = Anti-inflammatory activity in human THP1 cells assessed as inhibition of LPS-stimulated TNFalpha production at 25 uM incubated for 24 hrs followed by further stimulation with LPS during last 4 hrs by ELISA method; type: functional; conditions: THP-1
[25] = Anti-inflammatory activity in human THP1 cells assessed as inhibition of LPS-stimulated TNFalpha production at 100 uM incubated for 24 hrs followed by further stimulation with LPS during last 4 hrs by ELISA method; type: functional; conditions: THP-1
[26] = Anti-inflammatory activity in human THP1 cells assessed as inhibition of LPS-stimulated TNFalpha production at 50 uM incubated for 24 hrs followed by further stimulation with LPS during last 4 hrs by ELISA method; type: functional; conditions: THP-1
[27] = molecular target: T1, Tumor necrosis factor receptor superfamily member 1A (Homo sapiens, UniProt P19438); assay: Inhibition of TNFR1 (unknown origin)
T1 sequence (P19438 whole entry): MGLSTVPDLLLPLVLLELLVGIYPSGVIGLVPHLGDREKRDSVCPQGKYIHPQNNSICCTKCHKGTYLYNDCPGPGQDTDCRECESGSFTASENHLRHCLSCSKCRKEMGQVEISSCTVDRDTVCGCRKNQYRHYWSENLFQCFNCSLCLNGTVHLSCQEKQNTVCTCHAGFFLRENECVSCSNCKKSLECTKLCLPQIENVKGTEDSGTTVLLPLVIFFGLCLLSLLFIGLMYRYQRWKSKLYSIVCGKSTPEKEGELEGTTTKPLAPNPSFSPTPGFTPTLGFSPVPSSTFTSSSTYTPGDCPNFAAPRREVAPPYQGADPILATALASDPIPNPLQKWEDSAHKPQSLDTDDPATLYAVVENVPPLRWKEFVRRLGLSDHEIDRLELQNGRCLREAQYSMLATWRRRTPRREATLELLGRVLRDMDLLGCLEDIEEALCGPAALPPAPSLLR

IC50 [7] [µM] | SMILES | viability at 24 h, 10 µM [1] [%] | Activity [2] | Activity [3] | inhibition at 10 µM [4] [%] | inhibition at 5 µM [5] [%] | inhibition at 1 µM [23] [%] | inhibition at 25 µM [24] [%] | also measured
 | CCc1cc2c3[nH]c4ccc(Br)cc4c3cc[n+]2nc1CC.Cc1cc(C)cc(CS(=O)(=O)[O-])c1 | 3.76 | Non-toxic | Non-toxic | 89 |  |  |  | 
4.49 | COc1ccc2c(c1)[nH]c1c2cc[n+]2nc(C)c(C)cc12.[Br-] | 61.3 | Non-toxic | Non-toxic | 87.8 | 63.4 | 34.9 |  | inhibition at 0.5 µM [6]: 28.6%; inhibition (Homo sapiens [8]): Active; inhibition at 0.1 µM (PBMC [9]): 22.7%; inhibition (Monocyte [10]): Active; inhibition at 10 µM (PBMC [11]): 69.2%; inhibition at 5 µM (PBMC [12]): 71.2%; inhibition (Homo sapiens [13]): Active; inhibition at 0.1 µM [14]: -0.97%; inhibition at 10 µM [15]: 95.3%; IC50 [16]: 1.82 µM; inhibition at 1 µM [17]: 38.1%; inhibition (Monocyte [18]): Active; inhibition (Monocyte [19]): Active; IC50 (PBMC [20]): 3.91 µM; inhibition at 2.5 µM [21]: 56.4%; inhibition (Mus musculus): Active; inhibition at 1 µM (PBMC [22]): 38.8%
11.5 | CCOC(=O)Cn1c2cc(OC)ccc2c2cc[n+]3nc(CC)c(CC)cc3c21.Cc1cc(C)cc(CS(=O)(=O)[O-])c1 | 89.7 | Non-toxic | Non-toxic | 45 | 67 | 51 | 94 | 
 | C#CCCCn1c2cc(OC)ccc2c2cc[n+]3nc(-c4ccco4)c(-c4ccco4)cc3c21.Cc1cc(C)cc(CS(=O)(=O)[O-])c1 | 0 | Non-toxic | Non-toxic | 87 |  |  |  | 
 | CCc1cc2c3c(cc[n+]2nc1CC)c1ccc(OC)cc1n3CCCC#CC#CCCCn1c2cc(OC)ccc2c2cc[n+]3nc(CC)c(CC)cc3c21.Cc1cc(C)cc(CS(=O)(=O)[O-])c1.Cc1cc(C)cc(CS(=O)(=O)[O-])c1 | 9.54 | Non-toxic | Non-toxic | 34 |  |  |  | 
39.2 | Cc1cc(C)cc(CS(=O)(=O)[O-])c1.O=C(O)CCCn1c2ccccc2[n+]2nc3c(cc12)-c1cccc2cccc-3c12 | 86 | Non-toxic | Non-toxic | 19 |  |  | 47 | inhibition at 100 µM [25]: 85%; inhibition at 50 µM [26]: 70%
 | C#CCCCn1c2cc(OC)ccc2c2cc[n+]3nc4c(cc3c21)-c1cccc2cccc-4c12.Cc1cc(C)cc(CS(=O)(=O)[O-])c1 | 0 | Non-toxic | Non-toxic | 94 |  |  |  | 
 | CCc1cc2c3c(cc[n+]2nc1CC)c1ccc(OCc2ccccc2)cc1n3C(=O)OC(C)(C)C.Cc1cc(C)cc(CS(=O)(=O)[O-])c1 | 33 | Non-toxic | Non-toxic | 94 |  |  |  | 
9.88 | CCc1cc2c3c(cc[n+]2nc1CC)c1ccc(OC)cc1n3CCCI.[I-] | 63.3 | Non-toxic | Non-toxic | 72 | 36 | 11 | 79 | 
 | CCc1cc2c3[nH]c4c([N+](=O)[O-])cccc4c3cc[n+]2nc1CC.Cc1cc(C)cc(CS(=O)(=O)[O-])c1 | 79.4 | Non-toxic | Non-toxic | 29 | 56 | 44 | 47 | 
 | Cc1cc2occ(CN(C)CCN(C)Cc3cn(-c4cccc(C(F)(F)F)c4)c4ccccc34)c(=O)c2cc1C |  |  |  |  |  |  |  | IC50 [27]: 22 µM
 | CCc1cc2c3c(cc[n+]2nc1CC)c1ccc(OC)cc1n3CC(=O)O.Cc1cc(C)cc(CS(=O)(=O)[O-])c1 | 93 | Non-toxic | Non-toxic | 38 |  |  | 29 | inhibition at 100 µM [25]: 40%; inhibition at 50 µM [26]: 35%
 | Cc1ccc(C2=Cc3ccccc3C3N(C)C(=O)c4ccccc4N23)cc1 (centres undefined) |  |  |  | 47 |  |  |  | 
 | CN(C)CCC[N+](C)(C)CCCn1c2ccccc2[n+]2nc3c(cc12)-c1cccc2cccc-3c12.[Br-].[Br-] | 25.3 | Non-toxic | Non-toxic | 39 |  |  |  | 
9.33 | O=C1NC2c3ccccc3C(=O)N2c2ccccc21 (centres undefined) |  |  |  |  |  |  |  | 
14.6 | Cc1cc(C)cc(CS(=O)(=O)[O-])c1.O=C(O)Cn1c2ccccc2[n+]2nc3c(cc12)-c1cccc2cccc-3c12 | 69.9 | Non-toxic | Non-toxic | 45 | 7 | 12 | 84 | inhibition at 0.1 µM [14]: 9%
 | CCc1cc2c3[nH]c4c(N)cccc4c3cc[n+]2nc1CC.Cl.Cl | 65 | Non-toxic | Non-toxic | 88 | -13.4 | 13.3 |  | 
